{
  "source": "ChEMBL document CHEMBL3881525",
  "about": "“Analogs of dehydrophenylahistins and their therapeutic use” (2007)",
  "key": {"[1]": {"assay": "Toxicity in mouse allografted with mouse N202 tumor spheroids expressing H2B-GFP at 5 mg/kg, iv administered on day 12 as infusion for 2 mins", "type": "organism-based", "details": "in vivo"}, "[2]": {"test_system": "Jurkat", "assay": "Induction of apoptosis in human Jurkat cells assessed as caspase3 activation", "type": "functional, cell-based"}, "[3]": {"molecular_target": "T1, Tubulin (Homo sapiens) (UniProt P68371+Q9H4B7+P0DPH7+P68366+Q13509+Q71U36+P04350+Q3ZCM7+P07437+P68363+Q9BQE3+Q6PEY2+Q13885+Q9BVA1+Q9BUF5)", "assay": "Induction of microtubule instability in human MCF7 cells assessed as time spent for growth at IC50 for mitotic block measured after 20 hrs by immunofluorescence analysis", "type": "cell-based"}, "[4]": {"assay": "Antitumor activity against human A549 cells xenografted in nude mouse assessed as tumor growth inhibition at 7.5 mg/kg, ip qd administered every third day for 5 days in presence of CPT-11 relative to control", "type": "functional", "details": "120 h, read-out: TGI"}, "[5]": {"molecular_target": "T1, Tubulin (Homo sapiens)", "assay": "Induction of microtubule instability in human MCF7 cells assessed as time spent for attenuation at IC25 for mitotic block measured after 20 hrs by immunofluorescence analysis", "type": "cell-based"}, "[6]": {"assay": "Cytotoxicity against human CCD-27Sk cells assessed as reduction in cell viability measured after 48 hrs by resazurin dye-based fluorometric analysis"}, "[7]": {"molecular_target": "T1, Tubulin (Homo sapiens)", "assay": "Induction of microtubule instability in human MCF7 cells assessed as rescue frequency at IC25 for mitotic block measured after 20 hrs by immunofluorescence analysis", "type": "cell-based"}, "[8]": {"test_system": "HUVEC", "assay": "Induction of apoptosis in HUVEC assessed as cell membrane blebbing", "type": "functional, cell-based", "details": "Homo sapiens"}, "[9]": {"test_system": "Rattus norvegicus", "assay": "Effect on blood flow in rat brain at 15 mg/kg, ip measured after 1 hr by [125I]iodoantipyrine based method relative to vehicle control", "type": "ADME, organism-based", "details": "in vivo"}, "[10]": {"test_system": "HeLa", "assay": "Effect on cell cycle progression in human HeLa cells assessed as reduction in 2N cells at 100 nM", "type": "functional, cell-based"}, "[11]": {"test_system": "HUVEC", "assay": "Induction of apoptosis in HUVEC assessed as cell shrinkage", "type": "functional, cell-based", "details": "Homo sapiens"}, "[12]": {"test_system": "Rattus norvegicus", "assay": "Effect on blood flow in rat spleen at 15 mg/kg, ip measured after 1 hr by [125I]iodoantipyrine based method relative to vehicle control", "type": "ADME, organism-based", "details": "in vivo"}, "[13]": {"molecular_target": "T1, Tubulin (Homo sapiens)", "assay": "Induction of microtubule depolymerization in HUVEC assessed as cell membrane blebbing at 2 uM measured after 30 mins", "type": "cell-based"}, "[14]": {"test_system": "Rattus norvegicus", "assay": "Effect on blood flow in rat gut at 15 mg/kg, ip measured after 1 hr by [125I]iodoantipyrine based method relative to vehicle control", "type": "ADME, organism-based", "details": "in vivo"}, "[15]": {"assay": "Antitumor activity against human HT-29 cells xenografted in nude mouse assessed as tumor growth inhibition at 10 mg/kg, ip administered every third day for 5 days in presence of CPT-11 relative to control", "type": "functional", "details": "HT-29, ip, 120 h, read-out: TGI"}, "[16]": {"test_system": "MCF7", "assay": "Antimitotic activity in human MCF7 cells assessed as decrease in microtubule polymer formation measured after 20 hrs by immunofluorescence analysis relative to control", "type": "functional, cell-based"}, "[17]": {"test_system": "Jurkat", "assay": "Induction of apoptosis in human Jurkat cells assessed as DNA laddering at 1 nM by gel electrophoresis", "type": "functional, cell-based"}, "[18]": {"molecular_target": "T1, Tubulin (Homo sapiens)", "assay": "Induction of microtubule dynamic instability in human MCF7 cells assessed as effect on spindle morphology at mitotic block IC25 measured after 20 hrs by immunofluorescence analysis", "type": "cell-based"}, "[19]": {"assay": "Antiproliferative activity against taxol-sensitive human MES-SA cells […]", "type": "functional, cell-based"}, "[20]": {"assay": "Antifungal activity against Trichophyton rubrum isolate 1 measured after 48 hrs by broth dilution method", "type": "functional"}, "[21]": {"assay": "Antifungal activity against Trichophyton mentagrophytes isolate 1 measured after 48 hrs by broth dilution method", "type": "functional"}, "[22]": {"test_system": "Jurkat", "assay": "Induction of apoptosis in human Jurkat cells assessed as PARP cleavage at 100 nM measured after 10 hrs by Western blotting", "type": "functional, cell-based"}, "[23]": {"test_system": "Rattus norvegicus", "assay": "Reduction in blood flow in rat brain at 15 mg/kg, ip measured after 24 hrs by [125I]iodoantipyrine based method relative to vehicle control", "type": "ADME, organism-based", "details": "in vivo"}, "[24]": {"assay": "Antitumor activity against human HT-29 cells xenografted in nude mouse assessed as tumor growth inhibition at 7.5 mg/kg, ip administered every third day for 5 days relative to control", "type": "functional", "details": "HT-29, ip, 120 h, read-out: TGI"}, "[25]": {"assay": "Antiproliferative activity against human mitoxantrone-sensitive HL60 cells", "type": "functional, cell-based", "details": "HL-60"}, "[26]": {"assay": "Antimitotic activity in human MCF7 cells assessed as tubulin foci formation at mitotic block IC50 measured after 20 hrs by immunofluorescence analysis relative to control", "type": "functional"}, "[27]": {"test_system": "Trichophyton rubrum", "assay": "Fungicidal activity against Trichophyton rubrum isolate 2 measured after 48 hrs by broth dilution method", "type": "functional", "details": "isolate 2, 48 h"}, "[28]": {"test_system": "Rattus norvegicus", "assay": "Reduction in blood flow in rat skin at 15 mg/kg, ip measured after 24 hrs by [125I]iodoantipyrine based method relative to vehicle control", "type": "ADME, organism-based", "details": "in vivo"}, "[29]": {"molecular_target": "T1, Tubulin (Homo sapiens)", "assay": "Induction of microtubule instability in human MCF7 cells assessed as rescue frequency at IC50 for mitotic block measured after 20 hrs by immunofluorescence analysis", "type": "cell-based"}, "[30]": {"test_system": "Mus musculus", "assay": "Antivascular activity against mouse N202 tumor spheroids expressing H2B-GFP allografted in mouse assessed as inhibition of tumor-induced central vasculature at 10 mg/kg, iv administered on day 12 as infusion for 5 mins measured on day 15 by fluorescence video microscopy", "type": "functional, organism-based"}, "[31]": {"molecular_target": "T1, Tubulin (Homo sapiens)", "assay": "Time required for induction of microtubule dynamic instability in human MCF7 cells at IC25 for mitotic block measured after 20 hrs by immunofluorescence analysis", "type": "cell-based"}, "[32]": {"assay": "Antitumor activity against human DU145 cells xenografted in nude mouse assessed as tumor growth inhibition at 7.5 mg/kg, iv administered every third day for 5 days measured on day 28 relative to control", "type": "functional", "details": "DU-145, iv, read-out: TGI"}, "[33]": {"molecular_target": "T1, Tubulin (Homo sapiens)", "assay": "Induction of microtubule instability in human MCF7 cells assessed as time spent for shortening at IC50 for mitotic block measured after 20 hrs by immunofluorescence analysis", "type": "cell-based"}, "[34]": {"assay": "Antifungal activity against Candida glabrata measured after 48 hrs by broth dilution method", "type": "functional", "details": "Nakaseomyces glabratus"}, "[35]": {"test_system": "MCF7", "assay": "Potentiation of taxotere-induced antitumor activity against human MCF7 cells xenografted in nude mouse assessed as tumor growth inhibition at 7.5 mg/kg, ip qd for 4 days measured on day 7", "type": "functional, organism-based"}, "[36]": {"assay": "Antiproliferative activity against human mitoxantrone-resistant HL60/MX2 cells", "type": "functional, cell-based", "details": "HL-60"}, "[37]": {"molecular_target": "Tubulin (Bos taurus) (UniProt Q6B856+Q862L2+Q862F3)", "details": "10 uM", "description": "Inhibition of [3H]CLC binding to bovine brain tubulin at 10 uM measured after 120 mins in presence of GTP by scintillation counting method"}, "[38]": {"assay": "Toxicity in mouse allografted with mouse N202 tumor spheroids expressing H2B-GFP assessed as effect on tumor surrounding vasculature in the dorsal skin fold at 5 mg/kg, iv administered on day 12 as infusion for 2 mins measured on day 15", "type": "organism-based", "details": "in vivo"}, "[39]": {"test_system": "MDA-MB-231", "assay": "Antitumor activity against human MDA-MB-231 cells xenografted in nude mouse assessed as tumor growth inhibition at 7.5 mg/kg, ip administered thrice per day for 5 days in presence of paclitaxel relative to control", "type": "functional, organism-based"}, "[40]": {"test_system": "HUVEC", "assay": "Induction of monolayer permeability in HUVEC assessed as colchicin transport at 2 uM measured up to 1 hr", "type": "functional, cell-based", "details": "Homo sapiens"}},
  "note": "Active and inactive are the calls of the source. The rule behind the calls is not given here.",
  "data": [
    {"smiles": "CC(C)(C)c1[nH]cnc1/C=c1\\[nH]c(=O)/c(=C/c2ccccc2)[nH]c1=O", "note": "[PLINABULIN]", "values": [
      {"measurement": "Activity", "setting": "[1]", "value": "Non-Toxic"},
      {"measurement": "Activity", "setting": "[2]", "value": "Dose-dependent effect"},
      {"measurement": "Activity", "setting": "[3]", "value": 33, "unit": "%"},
      {"measurement": "TIME", "setting": "[3]", "value": 0.005, "unit": "h"},
      {"measurement": "inhibition in vivo at 7.5 mg/kg", "setting": "[4]", "value": 74, "unit": "%"},
      {"measurement": "Activity", "setting": "[5]", "value": 49.8, "unit": "%"},
      {"measurement": "TIME", "setting": "[5]", "value": 0.0122, "unit": "h"},
      {"measurement": "EC50", "setting": "[6]", "value": 9.2, "unit": "nM"},
      {"measurement": "Activity", "setting": "[7]", "value": 2.79, "unit": "min⁻¹"},
      {"measurement": "Activity", "setting": "[8]", "value": "Active"},
      {"measurement": "Activity", "setting": "[9]", "value": "Non-Toxic"},
      {"measurement": "Activity", "setting": "[10]", "value": "Active"},
      {"measurement": "Activity", "setting": "[11]", "value": "Active"},
      {"measurement": "Activity", "setting": "[12]", "value": "Non-Toxic"},
      {"measurement": "Activity", "setting": "[13]", "value": "Active"},
      {"measurement": "Activity", "setting": "[14]", "value": "Non-Toxic"},
      {"measurement": "inhibition in vivo at 10 mg/kg", "setting": "[15]", "value": "65.8 to 83.3", "unit": "%"},
      {"measurement": "Activity", "setting": "[16]", "value": "Dose-dependent effect"},
      {"measurement": "Activity", "setting": "[17]", "value": "Active"},
      {"measurement": "Activity", "setting": "[18]", "value": "Active"},
      {"measurement": "EC50", "setting": "[19]", "value": "8.5 to 34", "unit": "nM"},
      {"measurement": "MIC", "setting": "[20]", "value": "> 16", "unit": "µg/mL"},
      {"measurement": "MIC", "setting": "[21]", "value": 2, "unit": "µg/mL"},
      {"measurement": "Activity", "setting": "[22]", "value": "Active"},
      {"measurement": "Activity", "setting": "[23]", "value": "Toxic"},
      {"measurement": "inhibition in vivo at 7.5 mg/kg", "setting": "[24]", "value": 9, "unit": "%"},
      {"measurement": "EC50", "setting": "[25]", "value": 6.4, "unit": "nM"},
      {"measurement": "Activity", "setting": "[26]", "value": 73, "unit": "%"},
      {"measurement": "MFC", "setting": "[27]", "value": 0.125, "unit": "µg/mL"},
      {"measurement": "Activity", "setting": "[28]", "value": "Toxic"},
      {"measurement": "Activity", "setting": "[29]", "value": 2.6, "unit": "min⁻¹"},
      {"measurement": "inhibition", "setting": "[30]", "value": "Active"},
      {"measurement": "TIME", "setting": "[31]", "value": 0.728, "unit": "h"},
      {"measurement": "inhibition in vivo at 7.5 mg/kg", "setting": "[32]", "value": 92.5, "unit": "%"},
      {"measurement": "Activity", "setting": "[33]", "value": 20.9, "unit": "%"},
      {"measurement": "TIME", "setting": "[33]", "value": 0.00367, "unit": "h"},
      {"measurement": "MIC", "setting": "[34]", "value": "> 32", "unit": "µg/mL"},
      {"measurement": "TGI", "setting": "[35]", "value": "Active"},
      {"measurement": "EC50", "setting": "[36]", "value": 8.17, "unit": "nM"},
      {"measurement": "inhibition", "setting": "[37]", "value": "Active"},
      {"measurement": "Activity", "setting": "[38]", "value": "Non-Toxic"},
      {"measurement": "TGI", "setting": "[39]", "value": "Active"},
      {"measurement": "Activity", "setting": "[40]", "value": "Active"}
    ]}
  ]
}
